Test results from patent US20250019357A1, “[…] MORPHIC FORMS AND MIXTURES FOR THE TREATMENT OF MENTAL DISORDERS OR MENTAL ENHANCEMENT” (TACTOGEN INC, priority 2021, published 2025).

What was measured:
SERT [1] = target: T1, SERT (Rattus norvegicus (Rat), UniProt P31652); experiment: In vitro rat synaptosome serotonin uptake inhibition assay (Examples 9, 58); format: biochemical; conditions: rat synaptosomes
From the text: (§1) FIG. 7A is a graph showing results from an in vitro rat synaptosome serotonin uptake inhibition assay. […] Details and procedural information for this assay are described in Example 9. The x-axis is the log [dose] concentration measured in molar and the y-axis is the [^3H]-labeled 5-HT reuptake measured in percent.
as §1, with “176” for “7A”, “58.” for “9.”, “x-axis” for “x-axis is”, “concentration is” for “concentration”, “Molar units” for “molar”, “percent of maximum produced by the comparison releaser.” for “percent.”

SERT [2] = target: T1, SERT; experiment: In vitro rat synaptosome serotonin release (efflux) assay (Examples 9, 58); format: biochemical; conditions: rat synaptosomes
From the text: as §1, with “7B” for “7A”, “release” for “uptake inhibition”, “release” for “reuptake”
as §1, with “177” for “7A”, “release” for “uptake inhibition”, “58.” for “9.”, “x-axis” for “x-axis is”, “release” for “reuptake”

5-HT2B = 5-HT2B (Homo sapiens (Human), UniProt P41595); experiment: 5-HT2B antagonist assay (DiscoveRx Calcium NWPLUS, FLIPR); format: cell-based
Sequence of 5-HT2B (P41595 whole entry): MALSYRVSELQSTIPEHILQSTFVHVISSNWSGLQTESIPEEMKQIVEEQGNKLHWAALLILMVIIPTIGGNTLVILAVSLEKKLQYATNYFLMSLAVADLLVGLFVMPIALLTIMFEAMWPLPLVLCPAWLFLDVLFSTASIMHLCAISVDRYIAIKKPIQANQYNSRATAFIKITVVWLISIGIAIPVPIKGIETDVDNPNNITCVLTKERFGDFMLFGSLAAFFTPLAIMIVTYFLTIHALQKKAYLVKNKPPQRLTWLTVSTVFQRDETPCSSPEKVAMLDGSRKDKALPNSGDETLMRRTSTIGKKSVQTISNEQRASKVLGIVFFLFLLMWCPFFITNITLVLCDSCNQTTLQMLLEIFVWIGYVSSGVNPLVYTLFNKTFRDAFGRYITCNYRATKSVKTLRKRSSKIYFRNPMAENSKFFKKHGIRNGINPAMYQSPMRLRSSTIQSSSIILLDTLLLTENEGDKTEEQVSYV
Protocol: 5-HT2A and 5-HT2B Agonist and Antagonist Assays
The DiscoveRx Calcium NWPLUS Assay was used for detection of changes in intracellular calcium as signaled by an increase of dye fluorescence in cells expressing 5-HT2A receptors. Signal was measured on a fluorescent plate reader equipped with fluidic handling capable of detecting rapid changes in fluorescence upon compound stimulation.
To conduct the assay, cell lines were expanded from freezer stocks according to standard procedures. Cells (10,000cells/well) were seeded in a total volume of 50 μL ([…]) into black-walled, clear-bottom, Poly-D-lysine coated 384-well microplates and incubated at 37-C for the appropriate time prior to testing. DMSO concentration for all readouts was <0.2%. […]
Compound agonist activity was measured on a FLIPR Tetra. Calcium mobilization was monitored for 2 minutes with a 5 second baseline read. FLIPR read-Area under the curve was calculated for the two minute read. Compound activity was analyzed using CBIS data analysis suite (ChemInnovation, CA). Percentage activity was calculated as 100%×(mean RFU of test sample−mean RFU of vehicle control)/(mean MAX RFU control ligand −mean RFU of vehicle control). For antagonist mode assays, percentage inhibition was calculated as 100%×(1−(mean RFU of test sample−mean RFU of vehicle control)/(mean RFU of EC80 control−mean RFU of vehicle control)). […]

MDCKII cell line = experiment: In vitro absorption assay, MDCKII permeability; format: in vitro ADME; conditions: pH 7.4/7.4, 10 μM
Protocol: (§2) The permeability of 10 μM RS-5-MAPB in Caco-2, MDCKII, and MDR1-MDCKII cell line assays was assessed (Table 6). Both the AB and BA directions with and without the addition of a Pgp-specific inhibitor (verapamil), a MRP1 inhibitor (MK571), and an ATP-binding cassette subfamily G member 2 (ABCG2/BCRP) inhibitor (KG143) were measured. Trials were repeated twice, and values averaged.

MDR1-MDCKII cell line = experiment: In vitro absorption assay, MDR1-MDCKII permeability; format: in vitro ADME
Protocol: as §2

Caco-2 cell line = experiment: In vitro absorption assay, Caco-2 permeability; format: in vitro ADME
Protocol: as §2

[3] = Human self-reported effects of non-racemic 5-MAPB (Good, Bad, Open ratings); format: in vivo; conditions: one healthy human, 54 mg total 5-MAPB HCl oral in two halves 1 hour apart; session maximum averaged (N=2, 13% S N=1)
Protocol: The effects of non-racemic 5-MAPB HCl were tested by a healthy human individual at four different ratios of enantiomers plus the racemate as a control: • 54 mg S and 0 mg R (100% S) • 47 mg S and 7 mg R (about 87% S) • 36 mg S and 18 mg R (about 67% S) • 27 mg S and 27 mg R (about 50% S) • 7 mg S and 47 mg R (about 13% S)
Two trials were carried out at each ratio, except for 13% S where only one was conducted. Trials were at least 72 h apart.
5-MAPB HCl was dissolved in 1.5 ml distilled water and consumed in two halves, separated by 1 hour. Starting at 3 hours after administration, tablets of 250 mg ascorbic acid and capsules of 300 mg alpha lipoic acid were taken ad libitum (approximately every hour for a total of 4 administrations).
Measurements were made approximately every 2 hours until post 6 hours and the maximum ratings per session were analyzed. Additionally, an index of good drug effects versus emotional openness, calculated as (Open−Good)/(200, the theoretical maximum of Open+ Good), was constructed at each time point and the maximum analyzed. In healthy volunteers, Good Ratings can be considered a predictor of abuse liability. Accordingly, this index can be used as an indicator of the balance of a therapeutic effect (emotional openness) vs abuse liability.
Historic data of two trials 50 mg RS-5-MAPB Cl from the same individual were also included in the analysis for comparison.
Table 24 below indicates maximums for individual measures and for the open vs good index, averaged from all sessions (N=2, except for 13% S-5-MAPB where N=1). Qualitatively, all conditions produced subtle emotional effects, including decreases in negative affect and increases in stability of mood, without sensory distortion.

human DAT = human DAT (Homo sapiens (Human), UniProt Q01959); experiment: hDAT release assay in CHO cells ([3H]dopamine); conditions: read-out: EC50 DAT (Mean ± SEM), CHO cells expressing hDAT
human SERT = human SERT (Homo sapiens (Human), UniProt P31645); experiment: hSERT release assay in CHO cells ([3H]serotonin); conditions: read-out: EC50 SERT (Mean ± SEM), CHO cells expressing hSERT
[4] = Caco-2, pH 7.4/7.4 + KO143, 10 μM
[5] = Caco-2, pH 7.4/7.4 + verapamil, 10 μM

Structure (SMILES): CCC(Cc1ccc2ccoc2c1)NC (racemic) [RS-6-MBPB]
- [3H]-labeled 5-HT reuptake (serotonin uptake inhibition) (SERT [1]): rapidly increases extracellular serotonin by inhibiting reuptake
- [3H]-labeled 5-HT release (SERT [2]): rapidly increases extracellular serotonin by stimulating release
- IC50 (5-HT2B): 3080 nM

Structure (SMILES): CNC(C)Cc1ccc2occc2c1 (stereo not drawn) [RS-5-MAPB]
- Permeability (Papp) A-B (MDCKII cell line): 82.1 10^−6 cm/s
- Permeability (Papp) B-A (MDCKII cell line): 19.8 10^−6 cm/s
- Permeability (Papp) A-B (MDR1-MDCKII cell line; pH 7.4/7.4 + verapamil, 10 μM): 42.8 10^−6 cm/s
- Permeability (Papp) B-A (MDR1-MDCKII cell line; pH 7.4/7.4 + verapamil, 10 μM): 30.4 10^−6 cm/s
- Permeability (Papp) A-B (MDR1-MDCKII cell line; pH 7.4/7.4, 10 μM): 68.7 10^−6 cm/s
- Permeability (Papp) B-A (MDR1-MDCKII cell line; pH 7.4/7.4, 10 μM): 20.5 10^−6 cm/s
- absorption (conclusion of the permeability assays) (Caco-2 cell line; Caco-2, MDCKII and MDR1-MDCKII assays taken together): well absorbed
- Permeability (Papp) A-B (Caco-2 cell line; [4]): 75.3 10^−6 cm/s
- Permeability (Papp) B-A (Caco-2 cell line; [4]): 14 10^−6 cm/s
- Permeability (Papp) A-B (Caco-2 cell line; [5]): 37.6 10^−6 cm/s
- Permeability (Papp) B-A (Caco-2 cell line; [5]): 23 10^−6 cm/s
- Permeability (Papp) A-B (Caco-2 cell line; Caco-2, pH 7.4/7.4, 10 μM): 81 10^−6 cm/s
- Permeability (Papp) B-A (Caco-2 cell line; Caco-2, pH 7.4/7.4, 10 μM): 29.1 10^−6 cm/s
- Bad (bad drug effects), maximum 0-100 rating [3]: 10%
- Good (good drug effects), maximum 0-100 rating [3]: 50%
- Open (emotional openness), maximum 0-100 rating [3]: 45%
- EC50 (human DAT): 459 ± 48 nM
- EC50 (human SERT): 90 ± 16 nM
